Measurements taken from PMC7749516, “Safety and nonclinical and clinical pharmacokinetics of PC945, a novel inhaled triazole antifungal agent” (Pharmacology Research & Perspectives, 2020).
Where “and” joins values, the source holds several entries; their conditions need not be identical. Identical values can stand only once.

Legend:
[1] = system: CYP1A2, 2B6, 2C8, 2C9, 2C19, 2D6; test: CYP inhibition in pooled human liver microsomes, other isoforms; type: in vitro ADME
Procedure: PC945 and posaconazole (Sigma‐Aldrich, UK) were added to the pooled human liver microsomal samples (Pharmaron Rushden, UK) at concentrations of 0, 0.03, 0.1, 0.3, 1, 3, and 5 μmol/L. The mixtures were preincubated at 37°C for 0 or 30 minutes before the addition of selective CYP substrates. Microsomal reactions were terminated by adding 100 μL of cold (4°C) methanol containing appropriate internal standard. Aliquots (150 μL) of each sample were centrifuged and the supernatant was used for substrate analysis by ultra‐performance liquid chromatography with tandem mass spectrometry (UPLC‐MS/MS) on the day of incubations.
Change in substrate concentration was measured to determine the extent of CYP‐isoform inhibition. The 30‐minute preincubations were performed to determine whether there was time‐dependent inhibition of any CYP isoform (CYP1A2, 2B6, 2C8, 2C9, 2C19, 2D6, and 3A4/5). Untreated control contained only solvent, dimethyl sulfoxide (≤0.5% [v/v]). Positive control contained a chemical inhibitor selective for each CYP enzyme in the […].

[2] = First-in-human safety and tolerability (adverse events, spirometry); type: in vivo; conditions: for No. of subjects with treatment‐emergent adverse events attributed to study drug / Subjects with drug-related adverse event: Cough / Subjects with drug-related adverse event: Diarrhea / Subjects with drug-related adverse event: Dizziness / Subjects with drug-related adverse event: Fatigue / Subjects with drug-related adverse event: Feces soft / Subjects with drug-related adverse event: Headache / Subjects with drug-related adverse event: Lethargy / Subjects with drug-related adverse event: Muscle spasms / Subjects with drug-related adverse event: Nausea / Subjects with drug-related adverse event: Productive cough / Subjects with drug-related adverse event: Throat tightness: N = 6
Procedure: This PC945 first‐in‐human clinical trial (ClinicalTrials.gov Identifier: NCT02715570) was a two‐part randomized, placebo‐controlled study to assess the safety and tolerability of PC945 in both healthy subjects and subjects with mild asthma, conducted at Parexel Early Phase Clinical Unit (Harrow, UK). The study was considered single‐blind as the appearance of active and placebo doses were different, however, it was conducted in a double‐blind manner (employing separate dosing and assessment teams).
Part one consisted of a single dose escalation study (Cohort 1) and a repeat dose study (Cohort 2) of inhaled PC945 in healthy subjects. Part two comprised a single dose study of inhaled PC945 in subjects with mild asthma (Cohort 3). The doses selected were predicted to achieve target lung concentrations above the IC90/MIC90 for A. fumigatus (based on data from a range of in vitro and in vivo systems) throughout a 24‐hour period and with a suitable safety margin based on animal toxicology data.
Safety was evaluated based on assessments of adverse events, physical examination, vital signs, 12‐lead electrocardiogram, spirometry and clinical laboratory tests. The verbatim terms used to identify adverse events were coded using the Medical Dictionary for Regulatory Activities (version 20.1). All adverse events were mapped to system organ class and preferred term.
Spirometry parameters (FEV1 and FVC) were measured in all subjects to evaluate the local tolerability and potential for bronchospasm of PC945 in accordance with American Thoracic Society/European Respiratory Society guidelines. Predicted values were calculated using National Health and Nutrition Examination Survey reference equations. ^18 , ^19

[3] = In vitro plasma protein binding; type: in vitro ADME; conditions: 0.1‐50 µmol/L
Procedure: Plasma protein binding of PC945 was determined by […] in pooled plasma samples from human, dog, rat, and mouse. PC945 was tested at 0.1, 1, 5, 25, and 50 µmol/L in plasma for each species. PC945‐containing plasma samples were centrifuged at 238 859 g for 20 hours at 37°C. Supernatant was removed and diluted. The concentration of unbound PC945 was determined using LC‐MS/MS, from which the extent of protein binding was calculated.

[4] = system: A. fumigatus infection; design: method as in PMID 31263150; conditions: in vitro human alveolus bilayer model; cited from earlier work
[5] = Cohort 1 healthy, single dose 0.5 mg
[6] = Cohort 1 healthy, single dose 2 mg
[7] = Cohort 1 healthy, single dose 5 mg
[8] = Cohort 1 healthy, single dose 10 mg
[9] = Cohort 2 healthy, 5 mg once daily for 7 days
[10] = Cohort 3 mild asthma, single dose 5 mg

Structure (SMILES): Cc1cc(N2CCN(c3ccc(C(=O)Nc4ccc(F)cc4)cc3)CC2)ccc1OC[C@@H]1CO[C@@](Cn2cncn2)(c2ccc(F)cc2F)C1 [PC945]
- Time‐dependent effect on other CYP isoforms ([1]; 30‐minute preincubation): no time‐dependent effect
- Cytochrome P450 inhibitory interaction, isoforms other than CYP3A4/5 ([1]; up to 5 μmol/L): only cytochrome P450 inhibitory interaction observed for PC945 was that on CYP3A4/5 substrates
- No. of subjects with treatment‐emergent adverse events attributed to study drug [2, 5]: 1 (16.67) n (%)
- Subjects with drug-related adverse event: Cough [2, 5]: 0 n (%)
- Subjects with drug-related adverse event: Diarrhea [2, 5]: 0 n (%)
- Subjects with drug-related adverse event: Dizziness [2, 5]: 0 n (%)
- Subjects with drug-related adverse event: Fatigue [2, 5]: 1 (16.67) n (%)
- Subjects with drug-related adverse event: Feces soft [2, 5]: 0 n (%)
- Subjects with drug-related adverse event: Headache [2, 5]: 0 n (%)
- Subjects with drug-related adverse event: Lethargy [2, 5]: 0 n (%)
- Subjects with drug-related adverse event: Muscle spasms [2, 5]: 0 n (%)
- Subjects with drug-related adverse event: Nausea [2, 5]: 0 n (%)
- Subjects with drug-related adverse event: Productive cough [2, 5]: 0 n (%)
- Subjects with drug-related adverse event: Throat tightness [2, 5]: 0 n (%)
- No. of subjects with treatment‐emergent adverse events attributed to study drug [2, 6]: 0 n (%)
- Subjects with drug-related adverse event: Cough [2, 6]: 0 n (%)
- Subjects with drug-related adverse event: Diarrhea [2, 6]: 0 n (%)
- Subjects with drug-related adverse event: Dizziness [2, 6]: 0 n (%)
- Subjects with drug-related adverse event: Fatigue [2, 6]: 0 n (%)
- Subjects with drug-related adverse event: Feces soft [2, 6]: 0 n (%)
- Subjects with drug-related adverse event: Headache [2, 6]: 0 n (%)
- Subjects with drug-related adverse event: Lethargy [2, 6]: 0 n (%)
- Subjects with drug-related adverse event: Muscle spasms [2, 6]: 0 n (%)
- Subjects with drug-related adverse event: Nausea [2, 6]: 0 n (%)
- Subjects with drug-related adverse event: Productive cough [2, 6]: 0 n (%)
- Subjects with drug-related adverse event: Throat tightness [2, 6]: 0 n (%)
- No. of subjects with treatment‐emergent adverse events attributed to study drug [2, 7]: 2 (33.33) n (%)
- Subjects with drug-related adverse event: Cough [2, 7]: 0 n (%)
- Subjects with drug-related adverse event: Diarrhea [2, 7]: 0 n (%)
- Subjects with drug-related adverse event: Dizziness [2, 7]: 1 (16.67) n (%)
- Subjects with drug-related adverse event: Fatigue [2, 7]: 0 n (%)
- Subjects with drug-related adverse event: Feces soft [2, 7]: 1 (16.67) n (%)
- Subjects with drug-related adverse event: Headache [2, 7]: 1 (16.67) n (%)
- Subjects with drug-related adverse event: Lethargy [2, 7]: 1 (16.67) n (%)
- Subjects with drug-related adverse event: Muscle spasms [2, 7]: 1 (16.67) n (%)
- Subjects with drug-related adverse event: Nausea [2, 7]: 1 (16.67) n (%)
- Subjects with drug-related adverse event: Productive cough [2, 7]: 0 n (%)
- Subjects with drug-related adverse event: Throat tightness [2, 7]: 0 n (%)
- No. of subjects with treatment‐emergent adverse events attributed to study drug [2, 8]: 2 (33.33) n (%)
- Subjects with drug-related adverse event: Cough [2, 8]: 0 n (%)
- Subjects with drug-related adverse event: Diarrhea [2, 8]: 1 (16.67) n (%)
- Subjects with drug-related adverse event: Dizziness [2, 8]: 1 (16.67) n (%)
- Subjects with drug-related adverse event: Fatigue [2, 8]: 0 n (%)
- Subjects with drug-related adverse event: Feces soft [2, 8]: 0 n (%)
- Subjects with drug-related adverse event: Headache [2, 8]: 1 (16.67) n (%)
- Subjects with drug-related adverse event: Lethargy [2, 8]: 0 n (%)
- Subjects with drug-related adverse event: Muscle spasms [2, 8]: 0 n (%)
- Subjects with drug-related adverse event: Nausea [2, 8]: 1 (16.67) n (%)
- Subjects with drug-related adverse event: Productive cough [2, 8]: 0 n (%)
- Subjects with drug-related adverse event: Throat tightness [2, 8]: 0 n (%)
- No. of subjects with treatment‐emergent adverse events attributed to study drug [2, 9]: 2 (33.33) n (%)
- Subjects with drug-related adverse event: Cough [2, 9]: 0 n (%)
- Subjects with drug-related adverse event: Diarrhea [2, 9]: 0 n (%)
- Subjects with drug-related adverse event: Dizziness [2, 9]: 0 n (%)
- Subjects with drug-related adverse event: Fatigue [2, 9]: 0 n (%)
- Subjects with drug-related adverse event: Feces soft [2, 9]: 0 n (%)
- Subjects with drug-related adverse event: Headache [2, 9]: 1 (16.67) n (%)
- Subjects with drug-related adverse event: Lethargy [2, 9]: 0 n (%)
- Subjects with drug-related adverse event: Muscle spasms [2, 9]: 0 n (%)
- Subjects with drug-related adverse event: Nausea [2, 9]: 1 (16.67) n (%)
- Subjects with drug-related adverse event: Productive cough [2, 9]: 0 n (%)
- Subjects with drug-related adverse event: Throat tightness [2, 9]: 0 n (%)
- No. of subjects with treatment‐emergent adverse events attributed to study drug [2, 10]: 0 n (%)
- Subjects with drug-related adverse event: Cough [2, 10]: 0 n (%)
- Subjects with drug-related adverse event: Diarrhea [2, 10]: 0 n (%)
- Subjects with drug-related adverse event: Dizziness [2, 10]: 0 n (%)
- Subjects with drug-related adverse event: Fatigue [2, 10]: 0 n (%)
- Subjects with drug-related adverse event: Feces soft [2, 10]: 0 n (%)
- Subjects with drug-related adverse event: Headache [2, 10]: 0 n (%)
- Subjects with drug-related adverse event: Lethargy [2, 10]: 0 n (%)
- Subjects with drug-related adverse event: Muscle spasms [2, 10]: 0 n (%)
- Subjects with drug-related adverse event: Nausea [2, 10]: 0 n (%)
- Subjects with drug-related adverse event: Productive cough [2, 10]: 0 n (%)
- Subjects with drug-related adverse event: Throat tightness [2, 10]: 0 n (%)
- Deaths or serious adverse events ([2]; all cohorts): no deaths or serious adverse events
- Changes in lung function ([2]; healthy subjects): No clinically significant changes in lung function
- Tolerability ([2]; single doses up to 10 mg and 5 mg daily for 7 days in healthy subjects, single 5 mg in mild asthma): well tolerated
- Acute bronchospasm or significant change in lung function (>15% change from baseline) ([2]; subjects with mild asthma, single 5 mg): no evidence of acute bronchospasm or significant change in lung function
- Irritancy ([2]; subjects with mild asthma, single dose 5 mg): No evidence of irritancy
- Mean percentage protein bound ([3]; dog plasma): 91% and 91.1%
- Mean percentage protein bound ([3]; human plasma): 96.6%
- Mean percentage protein bound ([3]; mouse plasma): 96.2%
- Mean percentage protein bound ([3]; rat plasma): 97.8%
- Effect on A. fumigatus infection [4]: inhibit A. fumigatus infection
